Experimental data taken from US8507219B2, “Method of treating inflammation with statins” (MUSC Foundation for Research Development, priority 1997, dated 2013).
Where two headings read alike, the source gives them in different places.

Columns and labels:
[1] = test system: NO production in rat resident macrophages; experiment: LPS-/cytokine-induced NO production (nitrite) in rat resident peritoneal macrophages; assay type: cell-based; settings: for inhibition at 20000 µM: Rattus norvegicus, Macrophage
Protocol: Isolation of Rat Macrophages and Induction of NO Production Resident macrophages were obtained from rats by peritoneal lavage with sterile RPMI 1640 medium containing 1% fetal bovine serum and 100 μg/ml gentamicin (Wang et al., 1995). Cells were washed three times with RPMI 1640 at 4° C. All cell cultures were maintained at 37° C. in a humidified incubator containing 5% CO2 in air. Macrophages, at a concentration of 2×10^6/ml in RPMI 1640 medium containing L-glutamine and gentamicin, were added in volumes of 800 μl to a 35 mm plate. After 1 h, nonadherent cells were removed by washing and 800 μl of serum-free RPMI 1640 medium with various stimuli were added to the adherent cells. After 24 h incubation in 5% CO2 in air at 37° C., the culture supernatants were transferred to measure NO production (Geng et al., 1995; Wang et al., 1995).
Isolation of rat macrophages and induction of NO production Resident macrophages were obtained from rat by peritoneal lavage with sterile RPMI 1640 medium containing 1% fetal bovine serum and 100 μg/ml gentamicin as described herein. Cells were washed three times with RPMI 1640 at 4° C. All cell cultures were maintained at 37° C. in a humidified incubator containing 5% CO2 in air. Macrophages at a concentration of 2×10^6/ml in RPMI 1640 medium containing L-glutamine and gentamicin were added in volumes of 800 μl to a 35 mm plate. After 1 h, nonadherent cells were removed by washing and 800 μl of serum-free RPMI 1640 medium with various stimuli were added to the adherent cells. After incubation in 5% CO2 in air at 37° C., culture supernatants were transferred to measure NO production.
Isolation of rat macrophages and induction of NO production Resident macrophages were obtained from rat by peritoneal lavage with sterile RPMI 1640 medium containing 1% FBS and 100 μg/ml gentamicin. Cells were washed three times with RPMI 1640 at 4° C., and were maintained at 37° C. in a humidified incubator containing 5% CO2 in air. Macrophages at a concentration of […] in RPMI 1640 medium containing L-glutamine and gentamicin were added in volumes of 800 μl to a 35-mm plate. After 1 h, nonadherent cells were removed by washing, and 800 μl of serum-free RPMI 1640 medium with various stimuli was added to the adherent cells. After 24 h the culture supernatants were transferred to measure NO production.
Protein was measured (Bradford, 1976).

[2] = test system: TNF-α production in rat primary astrocytes; experiment: LPS-induced TNF-α production (ELISA) in rat primary astrocytes; assay type: cell-based
Protocol: (§1) Determination of TNF-α and IL-1β in culture supernatants Cells were stimulated with LPS in serum-free media for 24 h in the presence or absence of forskolin or rolipram, and concentrations of TNF-α and IL-1β were measured in culture supernatants by using high-sensitivity enzyme-linked immunosorbent assay (R&D Systems, USA) according to the manufacturer's instructions.

[3] = test system: IL-6 production in rat primary astrocytes; experiment: LPS-induced IL-6 production (ELISA) in rat primary astrocytes; assay type: cell-based
[4] = test system: IL-1β production in rat primary microglia; experiment: LPS-induced IL-1β production (ELISA) in rat primary microglia; assay type: cell-based
Protocol: as §1

EAE in female Lewis rats = experiment: Experimental allergic encephalomyelitis (EAE), clinical score; assay type: in vivo
Protocol: Rats were induced with EAE by injecting intradermally 50 μg of myelin basic protein (MBP) per animal emulsified in complete Freund's adjuvant (CFA) into the medial footpad of each hind leg on day 1 followed by a booster injection on the 7th day under ether anesthesia. Clinical symptoms in these rats manifest as an ascending paralysis resulting in death in most animals. The signs of EAE were scored as: (0) normal; (1) piloerection; […] (4) paraplegia; and (5) moribund. […] One group of animals induced for EAE was left untreated while another group of animals was not induced for EAE and used as the control group.

iNOS gene = iNOS gene transcription (nuclear run-on assay) in rat primary astrocytes; assay type: cell-based
Protocol: […]. In brief, the filters were prehybridized in 1 ml of hybridization buffer (50% formamide, 5×SSC, 1% SDS, 15% dextran sulfate, 1×Denhardt's solution, and 50 μg/ml heparin). After 24 h of prehybridization in the above buffer, hybridization was carried out with the labeled RNAs (1.3×10^5 cpm) at 42° C. for 60 h to 3 μg of the immobilized plasmid pGEM-T as a control, or to plasmids containing inserts of rat glyceraldehyde-3-phosphate dehydrogenase, rat actin, and human iNOS cDNAs. The filters were washed twice in 2×SSC, 0.1% SDS for 15 min at […], and twice in 0.5×SSC, 0.1% SDS for 15 min. Then the filters were treated with RNase buffer (300 mM NaCl, 10 mM TrisHCI, pH 7.4, 40 mM EDTA, 10 μg/ml RNase A, and 350 U/ml RNase T1) at 37° C. for 30 min, in the same buffer without RNases for another 30 min, and were then autoradiographed.

[5] = Astrocytes, 10 μM lovastatin or 5 mM NaPA 8 h, then LPS 1.0 μg/ml, 24 h
[6] = treatment from first day of immunization

`CC[C@H](C)C(=O)O[C@H]1C[C@@H](C)C=C2C=C[C@H](C)[C@H](CC[C@@H]3C[C@@H](O)CC(=O)O3)[C@H]21` [Lovastatin] was tested, and the “Production of NO” value ([1]; Macrophages, 10 μM lovastatin or 5 mM NaPA 8 h, then LPS 1.0 μg/ml, 24 h) was 7.2 ± 0.9 nmol/24 h/mg protein, the “Production of TNF-α” value [2, 5] was 0.3 ± 0.05 ng/24 h/mg protein and the “Production of IL-6” value [3, 5] was 6.9 ± 0.9 ng/24 h/mg protein. For the same compound, the “Production of IL-1β” value ([4]; Microglia, 10 μM lovastatin or 5 mM NaPA 8 h, then LPS 1.0 μg/ml, 24 h) was 2.1 ± 0.3 ng/24 h/mg protein, the “protection against EAE disease” value (EAE in female Lewis rats; [6]) was “significantly delayed the onset of first of clinical symptom” and the “LPS-induced nuclear transcription of the iNOS gene” value (iNOS gene; 10 μM lovastatin, 5 mM NaPA or 2 μM lovastatin and 2 mM NaPA 8 h, LPS 1.0 μg/ml 4 h) was “inhibited the relative rate of LPS-induced nuclear transcription of the iNOS gene”.

Compound `CC(=O)N[C@@H](CS)C(=O)O` [NAC, N-acetyl cysteine] has a Nitrite ([1]; IFN-γ 200 U/ml, NAC 20 mM 2 h before) of 9.9 ± 1.8 nmol/mg/24 h, a Nitrite ([1]; IL-1β 200 ng/ml, NAC 20 mM 2 h before) of 9.2 ± 0.7 nmol/mg/24 h and a Nitrite ([1]; LPS 0.2 μg/ml + IFN-γ 50 U/ml, NAC 20 mM 2 h before) of 25.2 ± 3.9 nmol/mg/24 h. The Nitrite ([1]; LPS 0.2 μg/ml + IL-1β 25 ng/ml, NAC 20 mM 2 h before) was 28.4 ± 3.7 nmol/mg/24 h, the Nitrite ([1]; LPS 0.2 μg/ml + TNF-α 20 ng/ml, NAC 20 mM 2 h before) was 13.6 ± 2.6 nmol/mg/24 h and the Nitrite ([1]; LPS 1.0 μg/ml, 24 h, NAC 20 mM 2 h before LPS, NMA 0.1 mM, arginase 100 units/ml with LPS) was 11.6 ± 1.5 nmol/mg Protein^24h. For the same compound, the “rate of nitrite accumulation” value ([1]; LPS 1.0 μg/ml, NAC 20 mM, onset of NO release until 24 h, 5.2 in the absence of NAC) was 0.5 nmol/mg/h, the Nitrite ([1]; LPS 1.0 μg/ml, NAC 20 mM 2 h before) was 11.6 ± 1.5 nmol/mg/24 h and the Nitrite ([1]; NAC 20 mM alone, no LPS, 24 h) was 6.2 ± 0.8 nmol/mg Protein^24h. It also gave an inhibition at 20000 µM ([1]; 7 h, NAC 20 mM added 7 h after the addition of LPS, read-out: inhibition of nitrite production) of 20%, an inhibition at 20000 µM ([1]; IFN-γ 200 U/ml, NAC 20 mM 2 h before, read-out: Inhibition (%) of nitrite) of 89% and an inhibition at 20000 µM ([1]; IL-1β 200 ng/ml, NAC 20 mM 2 h before, read-out: Inhibition (%) of nitrite) of 57%. The inhibition at 20000 µM ([1]; LPS 0.2 μg/ml + IFN-γ 50 U/ml, NAC 20 mM 2 h before, read-out: Inhibition (%) of nitrite) was 84%, the inhibition at 20000 µM ([1]; LPS 0.2 μg/ml + IL-1β 25 ng/ml, NAC 20 mM 2 h before, read-out: Inhibition (%) of nitrite) was 81% and the inhibition at 20000 µM ([1]; LPS 0.2 μg/ml + TNF-α 20 ng/ml, NAC 20 mM 2 h before, read-out: Inhibition (%) of nitrite) was 92%. For the same compound, the inhibition at 20000 µM ([1]; LPS 1.0 μg/ml, NAC 20 mM 2 h before, read-out: Inhibition (%) of nitrite) was 91%, the inhibition at 20000 µM ([1]; NAC 20 mM, 2 h before LPS, read-out: inhibition of LPS-mediated nitrite production) was greater than 90% and the inhibition at 20000 µM ([1]; TNF-α 20 ng/ml + IFN-γ 50 U/ml, NAC 20 mM 2 h before, read-out: Inhibition (%) of nitrite) was 79%. For the same compound, the inhibition at 20000 µM ([1]; TNF-α 20 ng/ml + IL-1β 25 ng/ml, NAC 20 mM 2 h before, read-out: Inhibition (%) of nitrite) was 83%, the inhibition at 20000 µM ([1]; TNF-α 100 ng/ml, NAC 20 mM 2 h before, read-out: Inhibition (%) of nitrite) was 64% and the inhibition at 20000 µM ([1]; no stimulus (Control), NAC 20 mM, read-out: Inhibition (%) of nitrite) was 37%. It also gave an inhibition at 20000 µM ([1]; of LPS (1.0 μg/ml)-induced nitrite, NAC 20 mM 2 h before, NMA 0.1 mM, arginase 100 units/ml with LPS, read-out: Inhibition (%)) of 91%, a Nitrite ([1]; TNF-α 20 ng/ml + IFN-γ 50 U/ml, NAC 20 mM 2 h before) of 29.6 ± 4.2 nmol/mg/24 h and a Nitrite ([1]; TNF-α 20 ng/ml + IL-1β 25 ng/ml, NAC 20 mM 2 h before) of 22.8 ± 2.7 nmol/mg/24 h. For the same compound, the Nitrite ([1]; TNF-α 100 ng/ml, NAC 20 mM 2 h before) was 10.1 ± 1.6 nmol/mg/24 h, the Nitrite ([1]; no stimulus (Control), NAC 20 mM) was 6.2 ± 0.8 nmol/mg/24 h and the “protection against EAE disease” value (EAE in female Lewis rats; [6]) was “protected the rats from the severity of the disease”.

With `O=C([O-])Cc1ccccc1.[Na+]` [NaPA, sodium salt of phenylacetic acid] the “Production of NO” value [1] was 9.5 ± 0.7 nmol/24 h/mg protein, the “Production of TNF-α” value [2] was 0.4 ± 0.06 ng/24 h/mg protein and the “Production of IL-6” value [3] was 7.6 ± 0.8 ng/24 h/mg protein. The “Production of IL-1β” value [4] was 2.4 ± 0.2 ng/24 h/mg protein, the “protection against EAE disease” value (EAE in female Lewis rats; rat, in vivo) was “protected the rats from the severity of the disease” and the “LPS-induced nuclear transcription of the iNOS gene” value (iNOS gene) was “inhibited the relative rate of LPS-induced nuclear transcription of the iNOS gene”.
